Data from patent publication US20240018119A1, “CARBOXAMIDE DERIVATIVE AND PHARMACEUTICAL COMPOSITION COMPRISING SAME AS ACTIVE INGREDIENT FOR PREVENTING OR TREATING MENTAL ILLNESS” (DAEGU-GYEONGBUK MEDICAL INNOVATION FOUNDATION, priority 2020, published 2024).
pIC50: −log10 of the molar value. Where two headings read alike, the source gives them in different places.

Experiments:
[1] = target: T1, norepinephrine transporter (Homo sapiens, UniProt P23975); assay: Norepinephrine reuptake inhibition in transporter-transfected HEK-293 cells ([3H]-NE); format: cell-based; conditions: for IC50: concentration at which Ratio % is 50%, 6 concentrations 1 nM to 1 μM, read-out: Triple reuptake inhibition (IC50, μM) NET; for Triple reuptake inhibition (Ratio %) NET: compound 1 μM, [3H]-NE, relative to control without compound (100%), lower = more inhibition
T1 construct: expressed in transfected cells; host or cells: HEK-293

dopamine transporter = target: T2, dopamine transporter (Homo sapiens, UniProt Q01959); assay: Dopamine reuptake inhibition in transporter-transfected HEK-293 cells ([3H]-DA); format: cell-based; conditions: for IC50: concentration at which Ratio % is 50%, 6 concentrations 1 nM to 1 μM, read-out: Triple reuptake inhibition (IC50, μM) DAT; for Triple reuptake inhibition (Ratio %) DAT: compound 1 μM, 20-30 nM [3H]-DA, relative to control without compound (100%), lower = more inhibition
T2 construct: expressed in transfected cells; host or cells: HEK-293
In short: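 HEK-293 cells transfected with human DAT cDNA; compound preincubated 15 min at 37 °C in uptake buffer, then buffer containing 20-30 nM [3H]-DA added for 5 min at 37 °C. After ice-cold washes and SDS lysis, radioactivity expressed as % of untreated control; IC50 from six concentrations (1 nM–1 μM).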

male ICR mice [2] = assay: Hyperactivity inhibitory effect, open field test (EthoVision) in MK801-treated mice; format: in vivo; conditions: for distance moved: vehicle about 7000 cm; for movement duration: vehicle about 880 s
Experimental: In order to evaluate the hyperactivity inhibitory effect of the compounds of Example 35 and Example 66 according to the present invention or Comparative Example 1, an experiment was performed as follows, and the results are shown in FIG. 1. An open field test is an experimental method utilized for searching for excess and decline in motor function, calmness, excitement, avoidance degree and toxicity.
The observation of the hyperactivity and behavior analysis of animals were conducted using an EthoVisiorn System (Noldus IT b.v., Netherlands) that is a type of an open field test. The animals used for the experiment were male ICR mice of 4 weeks old. To induce hyperactivity, animal models intraperitoneally administered with 0.15 mg/kg of MK801 (drug name: dizocilpine) were used, and the compounds of Example 35, example 66 or Comparative Example 1 was intraperitoneally administered by 5 mg/kg, 30 minutes ago the administration of MK801. Male ICP mice administered with 10% DMSO and 10% Tween-80 as the solvents dissolving a drug were considered a vehicle, and male ICR mice administered with MK801 […] with the Example Compound or Comparative Compound were considered a positive control. After that, in the center of a test box (40×40×30 cm) manufactured using black acryl, the mice under test were put and allowed to fit for 15 minutes, and behavior patterns were observed, recorded and analyzed for 15 minutes. Comparative analysis was conducted by measuring distance moved and movement duration.

serotonin transporter = target: T3, serotonin transporter (Homo sapiens, UniProt P31645); assay: Serotonin reuptake inhibition in transporter-transfected HEK-293 cells ([3H]-5-HT); format: cell-based; conditions: for IC50: concentration at which Ratio % is 50%, 6 concentrations 1 nM to 1 μM, read-out: Triple reuptake inhibition (IC50, μM) SERT; for Triple reuptake inhibition (Ratio %) SERT: compound 1 μM, [3H]-5-HT, relative to control without compound (100%), lower = more inhibition
T3 construct: expressed in transfected cells; host or cells: HEK-293

male ICR mice [3] = assay: Evaluation on causing sleep disorder, pentobarbital sodium-induced sleep in mice; format: in vivo; conditions: then pentobarbital sodium 42 mg/kg i.p.; for sleep onset time: vehicle about 225 seconds; for sleep duration: vehicle about 2100 seconds
Experimental: In order to evaluate the causing of sleep disorder or not as the side effect of the compound of Example 35, Example 66 according to the present invention or Comparative Example 1, an experiment was performed as follows, and the results are shown in FIG. 2. Pentobarbital sodium is a drug inducing sleep, and by observing the behavior of sleep-induced animals using the drug, the causing of sleep disorder or not can be evaluated. In addition, caffeine is well-known as a drug causing sleep disorder, and diazepam is well-known as a sleeping pill having sleep retention effect.
As experimental animals, male ICR mice of 3 weeks old were prepared and, 8 mice per group were prepared. A vehicle taking only water, groups intraperitoneally administered once a day for 5 days with 10 mg/kg of caffeine, 2 mg/kg of diazepam, 10 mg/kg of Comparative Example 1, and 10 mg/kg of Example 35 and 10 mg/kg of Example 66, were prepared. […], 42 mg/kg of pentobarbital sodium was intraperitoneally administered to the mice of each group to Induce sleep.
After treatment with pentobarbital sodium, if a mouse was turned upside down showing Its belly, it was considered sleep, and if a mouse changed posture while showing its back, it was considered to wake up completely. Sleep onset time and sleep duration were confirmed.

[4] = 5 mg/kg intraperitoneally 30 minutes before MK801 0.15 mg/kg i.p.
[5] = 5 mg/kg intraperitoneally 30 minutes before MK801 0.15 mg/kg i.p., observed 15 minutes, MK801 only about 14000 cm
[6] = 5 mg/kg intraperitoneally 30 minutes before MK801 0.15 mg/kg i.p., MK801 only about 1070 s
[7] = 10 mg/kg intraperitoneally once a day for 5 days
[8] = positive control treated with only MK801 0.15 mg/kg i.p.
[9] = 2 mg/kg intraperitoneally once a day for 5 days

T1 sequence (P23975 whole entry, species assumed): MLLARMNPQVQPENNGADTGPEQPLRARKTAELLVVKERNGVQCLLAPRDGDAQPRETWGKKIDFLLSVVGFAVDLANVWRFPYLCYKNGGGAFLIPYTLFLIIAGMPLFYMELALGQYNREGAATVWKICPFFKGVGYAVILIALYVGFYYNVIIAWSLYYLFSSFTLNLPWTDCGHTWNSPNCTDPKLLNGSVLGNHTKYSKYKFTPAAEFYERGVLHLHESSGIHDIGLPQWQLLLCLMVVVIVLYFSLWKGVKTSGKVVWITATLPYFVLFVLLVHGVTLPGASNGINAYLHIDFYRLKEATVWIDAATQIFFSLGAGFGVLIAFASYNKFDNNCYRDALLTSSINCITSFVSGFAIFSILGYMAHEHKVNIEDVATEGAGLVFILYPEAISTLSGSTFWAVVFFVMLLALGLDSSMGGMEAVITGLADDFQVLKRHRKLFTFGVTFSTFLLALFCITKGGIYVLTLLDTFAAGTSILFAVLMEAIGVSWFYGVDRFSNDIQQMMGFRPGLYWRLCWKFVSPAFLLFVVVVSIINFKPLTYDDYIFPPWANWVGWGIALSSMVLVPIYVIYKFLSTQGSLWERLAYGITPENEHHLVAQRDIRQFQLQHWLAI
T3 sequence (P31645 whole entry): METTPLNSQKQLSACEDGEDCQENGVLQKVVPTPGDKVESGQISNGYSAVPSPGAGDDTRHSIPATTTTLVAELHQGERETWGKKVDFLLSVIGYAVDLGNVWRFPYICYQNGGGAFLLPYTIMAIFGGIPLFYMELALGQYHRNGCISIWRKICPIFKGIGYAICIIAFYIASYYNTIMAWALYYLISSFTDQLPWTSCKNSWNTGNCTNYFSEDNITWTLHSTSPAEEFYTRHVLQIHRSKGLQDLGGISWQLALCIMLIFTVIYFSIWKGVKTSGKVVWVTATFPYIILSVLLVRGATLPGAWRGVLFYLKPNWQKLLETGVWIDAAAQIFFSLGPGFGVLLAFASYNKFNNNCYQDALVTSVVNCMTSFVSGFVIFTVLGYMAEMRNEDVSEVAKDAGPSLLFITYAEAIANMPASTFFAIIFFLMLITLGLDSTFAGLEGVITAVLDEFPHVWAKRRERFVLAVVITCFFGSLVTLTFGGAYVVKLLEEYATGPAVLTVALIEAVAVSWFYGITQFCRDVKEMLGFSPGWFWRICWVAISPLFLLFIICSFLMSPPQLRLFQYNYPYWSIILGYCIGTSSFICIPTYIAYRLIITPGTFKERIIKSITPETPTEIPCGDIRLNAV
T2 sequence (Q01959 whole entry): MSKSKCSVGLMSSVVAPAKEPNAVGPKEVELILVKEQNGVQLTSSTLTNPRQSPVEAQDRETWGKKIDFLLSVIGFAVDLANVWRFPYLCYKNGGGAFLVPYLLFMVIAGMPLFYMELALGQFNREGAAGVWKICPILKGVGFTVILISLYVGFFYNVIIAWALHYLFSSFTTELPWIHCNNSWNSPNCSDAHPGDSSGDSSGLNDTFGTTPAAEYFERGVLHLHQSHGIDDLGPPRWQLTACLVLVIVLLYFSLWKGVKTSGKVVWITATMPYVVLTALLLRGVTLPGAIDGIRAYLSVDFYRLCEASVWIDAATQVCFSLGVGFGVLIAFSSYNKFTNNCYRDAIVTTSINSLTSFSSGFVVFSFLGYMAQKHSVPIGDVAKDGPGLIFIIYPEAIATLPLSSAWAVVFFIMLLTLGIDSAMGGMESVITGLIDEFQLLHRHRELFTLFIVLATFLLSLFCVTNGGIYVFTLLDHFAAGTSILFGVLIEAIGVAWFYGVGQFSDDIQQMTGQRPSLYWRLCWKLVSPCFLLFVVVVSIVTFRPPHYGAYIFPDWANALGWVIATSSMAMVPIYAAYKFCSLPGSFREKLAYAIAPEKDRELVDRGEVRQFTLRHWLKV

| Structure (SMILES) | IC50 [1] [µM] | IC50 (dopamine transporter) [µM] | IC50 (serotonin transporter) [µM] | Triple reuptake inhibition (Ratio %) NET [1] [%] | Triple reuptake inhibition (Ratio %) DAT (dopamine transporter) [%] | Triple reuptake inhibition (Ratio %) SERT (serotonin transporter) [%] | also measured |
| --- | --- | --- | --- | --- | --- | --- | --- |
| O=C(NCCN1CCC(Cc2ccccc2)CC1)c1cc2ccccc2[nH]1 [Comparative Example 1, N-(2-(4-benzylpiperidin-1-yl)ethyl)-1H-indol-2-carboxamide, reference compound] | 0.524 | 4.18 | 5.35 |  |  |  | hyperactivity of the mice induced with MK801 (male ICR mice [2]; [4]): not inhibited; distance moved (male ICR mice [2]; [5]): about 13400 cm; movement duration (male ICR mice [2]; [6]): about 1100 seconds; sleep disorder as side effect (male ICR mice [3]; [7]): induced sleep disorder; sleep onset time (male ICR mice [3]; [7]): about 300 seconds; sleep duration (male ICR mice [3]; [7]): about 1100 seconds |
| COc1cc2cc(C(=O)NCCN3CCC(Cc4ccccc4)CC3)[nH]c2cc1OC [Example 35, N-(2-(4-benzylpiperidin-1-yl)ethyl)-5,6-dimethoxy-1H-indol-2-carboxamide] | 0.386 | 0.248 | 0.415 | 16.10 | 7.77 | 36.24 | hyperactivity of the mice induced with MK801 (male ICR mice [2]; [4]): significantly inhibited; distance moved (male ICR mice [2]; [5]): about 10000 cm; movement duration (male ICR mice [2]; [6]): about 950 seconds |
| O=C(NCCN1CCC(Cc2ccccc2)CC1)c1cc2cc(O)ccc2[nH]1 [Example 66, N-(2-(4-benzylpiperidin-1-yl)ethyl)-5-hydroxy-1H-Indol-2-carboxamide] | 0.167 | 0.036 | 0.265 | 21.59 | 8.78 | 38.79 | hyperactivity of the mice induced with MK801 (male ICR mice [2]; [4]): significantly inhibited; distance moved (male ICR mice [2]; [5]): about 8600 cm; movement duration (male ICR mice [2]; [6]): about 880 seconds |
| CCCCOc1ccc(C(=O)NCCN2CCC(c3c[nH]c4ccccc34)CC2)cc1 [Example 72, N-(2-(4-(1H-indol-3-yl)piperidin-1-yl)ethyl)-4-butoxybenzamide] |  |  |  | 97.62 | 58.16 | 17.44 |  |
| O=C(NCCN1CCC(Cc2ccccc2)CC1)c1c[nH]c2ccccc12 [Example 73, N-(2-(4-benzylpiperidin-1-yl)ethyl)-1H-indol-3-carboxamide] |  |  |  | 57.01 | 33.58 | 88.39 |  |
| Cn1c(C(=O)NCCN2CCC(Cc3ccccc3)CC2)cc2ccccc21 [Example 74, N-(2-(4-benzylpiperidin-1-yl)ethyl)-1-methyl-1H-indol-2-carboxamide] | 0.337 | 0.509 | 3.41 | 28.47 | 39.87 | 67.26 |  |
| O=C(NCCN1CCC(Cc2ccccc2)CC1)c1ccc[nH]1 [Example 75, N-(2-(4-benzylpiperidin-1-yl)ethyl)-1H-pyrrol-2-carboxamide] |  |  |  | 67.08 | 83.55 | 98.97 |  |
| O=C(CCN1CCC(Cc2ccccc2)CC1)Nc1cc2ccccc2[nH]1 [Example 76, 3-(4-benzylpiperidin-1-yl)-N-(1H-indol-2-yl)propanamide] |  |  |  | 32.60 | 36.87 | 68.60 | pIC50 [1]: 6.30; pIC50 (dopamine transporter): 6.56; pIC50 (serotonin transporter): 6.09 |
| O=C(CCC(=O)N1CCC(Cc2ccccc2)CC1)Nc1cc2ccccc2[nH]1 [Example 77, 4-(4-benzylpiperidin-1-yl)-N-(1H-indol-2-yl)-4-oxobutanamide] |  |  |  | 91.05 | 111.32 | 98.61 |  |
| O=C(O)c1ccc2[nH]c(C(=O)NCCN3CCC(Cc4ccccc4)CC3)cc2c1 [Example 81, 2-((2-(4-benzylpiperidin-1-yl)-ethyl)carbamoyl)-1H-indol-5-carboxylic acid] |  |  |  | 95.95 | 70.22 | 87.86 |  |
| NC(=O)c1ccc2[nH]c(C(=O)NCCN3CCC(Cc4ccccc4)CC3)cc2c1 [Example 82, N2-(2-(4-benzylpiperidin-1-yl)ethyl)-1H-indol-2,5-dicarboxamide] |  |  |  | 37.73 | 47.70 | 41.20 |  |
| C[C@]12N[C@H](Cc3ccccc31)c1ccccc12 [MK801, reference compound] |  |  |  |  |  |  | movement duration (male ICR mice [2]; [8]): about 1070 seconds; distance moved (male ICR mice [2]; [8]): about 14000 cm |
| CN1C(=O)CN=C(c2ccccc2)c2cc(Cl)ccc21 [diazepam] |  |  |  |  |  |  | sleep onset time (male ICR mice [3]; [9]): about 170 seconds; sleep duration (male ICR mice [3]; [9]): about 2900 seconds |
